Measurements: patent US10913752B2, “Bivalent bromodomain inhibitors and uses thereof” (Dana-Farber Cancer Institute, Inc., priority 2015, dated 2021)
Entries after “also recorded” stand apart in the source; their conditions may differ.

Columns and labels:
[1] = tested on: MV4; 11 human leukemia cells (mCherry+, Luciferase+); assay: Disseminated leukemia xenograft, first study; parameters: mCherry+ leukemic burden in bone marrow by FACS: dose or concentration left out as unconfirmed
BRD2, 3 and 4 = assay: Cellular thermal shift assay (CETSA); assay type: cell-based, human; settings: MV411 cells
Method: Cellular Thermal Shift Assay (CETSA)
Compound or DMSO was incubated with 4×10^6 MV411 cells for 1 hr at 37° C. Cells were put on ice and washed with PBS and transferred to PCR tubes. Supernatant was aspirated to leave ˜5 μl in each tube and then cells were heat shocked in a thermocycler at 48.5° C. for 3 min to denature proteins. Cells were then allowed to cool at RT for 3 min and then resuspended in 35 μl lysis buffer (50 mM Tris-HCl pH 7.5, 5% glycerol, 100 mM NaCl, 1.5 mM MgCl, 0.2% NP-40+protease inhibitor cocktail (Halt)) and freeze-thawed 3 times with liquid nitrogen to lyse cells. Lysates were then spun at 20,000×g for 20 min to clarify and pellet aggregated protein. Supernatant was boiled with LDS and split into three samples for immunoblotting. Bands were quantified using Image Studio™ software and plotted using GraphPad PRISM v6 as triplicate means±SEM.

BRD4(1,2^MUT) (N433A) = assay: Size-exclusion chromatography, second bromodomain mutant; settings: half an equivalence of MT1
neurokinin NK2 receptor = target: T1, neurokinin NK2 receptor (Homo sapiens, UniProt P21452); assay: Receptor profiling, [Nleu-10]-NKA radioligand binding; settings: 1 μM
T1 construct: purchased CEREP (Eurofins, Paris, France), ExpresSProfile
T1 sequence (P21452 whole entry): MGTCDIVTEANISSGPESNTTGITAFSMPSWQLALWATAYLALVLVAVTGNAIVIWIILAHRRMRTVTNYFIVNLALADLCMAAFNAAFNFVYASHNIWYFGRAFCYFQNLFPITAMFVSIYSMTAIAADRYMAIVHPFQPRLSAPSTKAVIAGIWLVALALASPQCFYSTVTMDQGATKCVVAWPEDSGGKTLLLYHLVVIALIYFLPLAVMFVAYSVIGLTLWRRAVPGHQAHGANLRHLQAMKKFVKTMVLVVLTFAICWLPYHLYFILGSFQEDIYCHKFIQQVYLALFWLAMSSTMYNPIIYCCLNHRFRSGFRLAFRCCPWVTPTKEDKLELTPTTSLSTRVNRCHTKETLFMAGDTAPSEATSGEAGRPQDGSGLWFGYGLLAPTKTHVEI
From the text: Receptor Profiling Studies

[2] = tested on: MV4; 11 human leukemia cells (mCherry+, Luciferase+); assay: Disseminated leukemia xenograft, second (survival) study; assay type: in vivo, mice (NSG); settings: 44.2 μmol/kg
From the text: A drug holiday was given for 2 days (day 29-30), Treatment resumed for 5 more days (31-35) and then ended. Mice were monitored and sacrificed when hind-limb paralysis was evident or body weight dropped by 15%.

MV4; 11 cells = assay: Immunoblot for caspase-3 and PARP cleavage in MV4;11 cells; assay type: cell-based, human; settings: 100 nM
Method: (§1) Cells were lysed with RIPA buffer supplemented with protease inhibitor cocktail (Roche) and 0.1% benzonase (Novagen) on ice for 20 minutes. The lysates were spun at 20,000×g for 15 minutes at 4° C. and protein concentration was determined by a BCA assay (Pierce). The following antibodies were used in this study: BRD4 (Bethyl labs), c-MYC and actin (both Santa Cruz), HEXIM1, PARP, cleaved caspase 3 (all Cell Signaling Technology). Blots were imaged using fluorescence-labeled secondary antibodies (LI-COR) on the OdysseyCLxImager (LI-COR).

wild-type BRD4(1,2) = assay: Size-exclusion chromatography, wild-type tandem construct; settings: half an equivalence of MT1
[3] = tested on: 55 ligand receptors, ion channels, and transport proteins; assay: Receptor profiling (ExpresSProfile, CEREP); settings: 1 μM, more than 50 tested
NMC797 and MV4; 11 cells = assay: Cellular assays, cell lines not told apart (NMC797 and MV4;11); assay type: cell-based, human
From the text: Analysis of Cell Viability by ATPLite

[4] = Mouse pharmacokinetics (cassette and single PK); assay type: in vivo, CD1 mice; settings: mice
Method: FIGS. 9a-9b. Cassette PK properties of bivalent inhibitors. FIGS. 9a and 9b show PK parameters of mice 5-in-1 cassette PK. Five compounds (1 mg/kg) were intravenously administered to CD1 mice (n=3).
FIGS. 10a-10b. Individual PK properties of bivalent inhibitors. […] (6S+2S)-PEG0 (50 mg/kg) was intraperitoneally administered to CD1 mice (n=3). […] (6S+6S)-PEG7 (50 mg/kg) was intraperitoneally administered to CD1 mice (n=3).

BRD4(1^MUT,2) (N140A) = assay: Size-exclusion chromatography, first bromodomain mutant; settings: half an equivalence of MT1
BRD4(1) [5] = target: T2, BRD4(1) (Homo sapiens, UniProt O60885); assay: BRD4(1) AlphaScreen (competition with biotinylated-JQ1); assay type: binding; parameters: human BRD4 covering residues 44-168 (His-BRD4(1)) or 333-460 (His-BRD4(2)); made in house; host or cells: E. coli BL21 (DE3); settings: for biochemical activity (in words): biochemical assay, compared with JQ1
Method: BRD4(1) and BRDT(1) AlphaScreen™
Assays were performed with minimal modifications from the manufacturer's protocol (PerkinElmer, USA). All reagents were diluted in AlphaScreen™ buffer (50 mM HEPES, 150 mM NaCl, 0.1% w/v BSA, 0.01% w/v Tween20, pH 7.5) and allowed to equilibrate to room temperature prior to addition to plates. After addition of Alpha beads to master solutions all subsequent steps were performed under low light conditions. […] Plates were spun down at 150×g, 100 nL of compound in DMSO from stock plates were added by pin transfer using a Janus Workstation (PerkinElmer). The streptavidin-coated donor beads (10 μg/ml final) were added as with previous in a 2×, 10 μL volume. Following this addition, plates were sealed with foil to prevent light exposure and evaporation. The plates were spun down again at 150×g.

BRD4(1,2) = BRD4(1,2) (Homo sapiens, UniProt O60885); assay: BROMOscan, tandem bromodomain construct
WDR9(2) = target: T3, WDR9(2) (Homo sapiens, UniProt Q9NSI6); assay: BROMOscan, WDR9(2); assay type: binding
T3 construct: purchased DiscoveRx (BROMOscan)
T3 sequence (Q9NSI6 1313-1418 limits assumed): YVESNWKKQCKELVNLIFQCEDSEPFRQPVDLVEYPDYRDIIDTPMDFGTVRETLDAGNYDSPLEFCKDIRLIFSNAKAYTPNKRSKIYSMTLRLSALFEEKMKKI
From the text: (§2) To further profile bivalent inhibitors, fluorescent polarization (FP) and phage-based, multiplexed bromodomain displacement assays (BROMOscan™, DiscoveRx) were utilized.

BRD4(1) [6] = target: T2, BRD4(1); assay: BROMOscan phage-based bromodomain displacement, BRD4(1)
EP300 = target: T4, EP300 (Homo sapiens, UniProt Q09472); assay: BROMOscan, EP300; assay type: binding
T4 construct: purchased DiscoveRx (BROMOscan)
T4 sequence (Q09472 1049-1156 limits assumed): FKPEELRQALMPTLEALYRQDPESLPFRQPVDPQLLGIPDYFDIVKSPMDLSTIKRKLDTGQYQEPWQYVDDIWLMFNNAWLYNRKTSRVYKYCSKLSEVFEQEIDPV
From the text: as §2

BRD4(2) = BRD4(2) (Homo sapiens, UniProt O60885); assay: BROMOscan, BRD4(2)
BRD4 = target: T5, BRD4 (Homo sapiens, UniProt O60885); assay: Immunoblot for BRD4 protein stability (degradation); assay type: cell-based; settings: immunoblots following compound treatment
T5 construct: endogenous in cells; host or cells: MV4;11
Method: as §1

CBP = target: T6, CBP (Homo sapiens, UniProt Q92793); assay: BROMOscan, CBP; assay type: binding
T6 construct: purchased DiscoveRx (BROMOscan)
T6 sequence (Q92793 1085-1192 limits assumed): as the sequence (Q09472 1049-1156 limits assumed) above, with S47N, I73V, Y93F, S98A counted along it
From the text: as §2

BRD4(full) = BRD4(full) (Homo sapiens, UniProt O60885); assay: BROMOscan, full length protein
MYC = assay: Immunoblot for MYC in MV4;11 cells; assay type: cell-based, human
Method: as §1

HEXIM1 = assay: Immunoblot for HEXIM1 in MV4;11 cells; assay type: cell-based, human
Method: as §1

[7] = tested on: NMC797 cells (BRD4-rearranged NUT midline carcinoma); assay: cells; settings: Homo sapiens, NMC-797, 72 h, read-out: IC50, proliferation
Method: Cells were cultured at 37° C. with 5% CO2 in either DMEM (NMC797) or RPMI1640 (MV4; 11) supplemented with 10% FBS (Sigma), 100 U/mL penicillin, 100 μg/mL streptomycin, and 2 mM glutamine (Gibco). Cells tested negative for mycoplasma using the MycoAlert™ kit (Lonza).
Cells were plated at 1000 cells/well in 50 μL/well of media in 384 well white culture plates (Thermo). NMC797 cells were allowed to adhere overnight before adding 100 μL of compound in DMSO from compound stock plates using a Janus Workstation pin tool (PerkinElmer, USA). […] Cell viability was read out using the ATPlite kit (PerkinElmer). Plates were brought to room temperature prior to reagent addition. Lyophilized powder was resuspended in lysis buffer and diluted 1:2 with DI water.

## Methyl 2-((S)-4-(4-chlorophenyl)-2-((2-(2-((S)-4-(4-chlorophenyl)-2,3,9-trimethyl-6H-thieno[3,2-f][1,2,4]triazolo[4,3-a][1,4]diazepin-6-yl)acetamido)ethyl)carbamoyl)-3,9-dimethyl-6H-thieno[3,2-f][1,2,4]triazolo[4,3-a][1,4]diazepin-6-yl)acetate [MT1]
[1]; half an equivalence (22.1 μmol/kg), 14 days, compared to vehicle or JQ1
  leukemic burden by bioluminescence imaging: significantly reduced leukemic burden
[1]; post-mortem, MT1 at 22.1
  mCherry+ leukemic burden in bone marrow by FACS: significantly decreased
BRD2, 3 and 4
  concentrations needed for stabilization, compared with JQ1: lower concentrations
BRD2, 3 and 4; 48.5° C. heat shock
  thermal stabilization of BET proteins: stabilized BRD2, 3 and 4 in a concentration dependent manner
BRD4(1,2^MUT) (N433A)
  dimerization by SEC: Complete dimerization
Neurokinin NK2 receptor
  inhibition of radioligand agonist binding: only partial inhibition of binding
[2]
  body weight after drug withdrawal: recovered body weight after drug was withdrawn
[2]; compared to JQ1
  disease monitored by bioluminescence: significantly reduced
[2]; compared to vehicle or JQ1
  overall survival: significantly increased overall survival
[2]; of 11 mice
  mice sacrificed due to emaciation from drug toxicity: two
MV4; 11 cells
  apoptosis by caspase-3 and PARP cleavage: Significant apoptosis
wild-type BRD4(1,2)
  dimerization by SEC: absence of dimerization
[3]
  off-target effects on receptors and ion channels: limited activity; also recorded: few off-target effects
NMC797 and MV4; 11 cells; 11, compared with JQ1
  cellular activity (in words): translated well in cellular activities
[4]
  PK properties (in words): improved PK properties
  exposure in vivo (in words): highly prolonged exposure in vivo
BRD4(1^MUT,2) (N140A)
  dimerization by SEC: partial dimerization

## COC(=O)C[C@@H]1N=C(c2ccc(Cl)cc2)c2c(sc(C(=O)NCCOCCNC(=O)c3sc4c(c3C)C(c3ccc(Cl)cc3)=N[C@@H](CC(=O)OC)c3nnc(C)n3-4)c2C)-n2c(C)nnc21 [(2+2)-PEG1, Dimethyl 2,2′-((6S,6′S)-(((oxybis(ethane-2,1-diyl))bis(azanediyl))bis(carbonyl))bis(4-(4-chlorophenyl)-3,9-dimethyl-6H-thieno[3,2-f][1,2,4]triazolo[4,3-a][1,4]diazepine-2,6-diyl))diacetate]
BRD4(1) [5]; AlphaScreen, BRD4(1)
  IC50: 1.17 nM
BRD4(1) [5]; BRD4(1), relative to monomeric inhibitor
  fold increase in biochemical potency / inhibitory activity: 20 fold
NMC797 and MV4; 11 cells; 11, compared with JQ1
  cellular activity (in words): not properly reflected in cellular activity
NMC797 and MV4; 11 cells; 11, compared with JQ1, listed as (2+2) homodimer
  cellular activity (in words): did not translate into cellular activity

## COC(=O)C[C@@H]1N=C(c2ccc(Cl)cc2)c2c(sc(C(=O)NCCOCCNC(=O)C[C@@H]3N=C(c4ccc(Cl)cc4)c4c(sc(C)c4C)-n4c(C)nnc43)c2C)-n2c(C)nnc21 [(6S+2S)-PEG1, Methyl 2-((S)-4-(4-chlorophenyl)-2-((2-(2-(2-((S)-4-(4-chlorophenyl)-2,3,9-trimethyl-6H-thieno[3,2-f][1,2,4]triazolo[4,3-a][1,4]diazepin-6-yl)acetamido)ethoxy)ethyl)carbamoyl)-3,9-dimethyl-6H-thieno[3,2-f][1,2,4]triazolo[4,3-a][1,4]diazepin-6-yl)acetate]
BRD4(1,2)
  displacement of phage (in words): picomolar displacement
WDR9(2)
  Kd: 9900 nM
BRD4(1) [6]
  displacement of phage (in words): picomolar displacement
EP300
  Kd: 5000 nM
BRD4(2)
  displacement of phage (in words): picomolar displacement
BRD4
  effect on BRD4 protein stability: No effect on protein stability
BRD4(1) [5]
  biochemical activity (in words): single-digit to sub-nanomolar activity
CBP
  Kd: 2500 nM
NMC797 and MV4; 11 cells; 11, compared with JQ1
  cellular activity (in words): single-digit to sub-nanomolar activity
BRD4(full)
  displacement of phage (in words): picomolar displacement
MYC; 10 nM
  time of maximum effect on MYC: 2 h
MYC; within two hours
  lowest concentration with MYC downregulation: 10 nM
HEXIM1
  time points of HEXIM1 upregulation: 4 to 24 h

## COC(=O)C[C@@H]1N=C(c2ccc(Cl)cc2)c2c(sc(C(=O)NCCNC(=O)C[C@@H]3N=C(c4ccc(Cl)cc4)c4c(sc(C)c4C)-n4c(C)nnc43)c2C)-n2c(C)nnc21 [(6S+2S)-PEG0, Methyl 2-((S)-4-(4-chlorophenyl)-2-((2-(2-((S)-4-(4-chlorophenyl)-2,3,9-trimethyl-6H-thieno[3,2-f][1,2,4]triazolo[4,3-a][1,4]diazepin-6-yl)acetamido)ethyl)carbamoyl)-3,9-dimethyl-6H-thieno[3,2-f][1,2,4]triazolo[4,3-a][1,4]diazepin-6-yl)acetate]
[4]
  PK properties (in words): comparable PK properties to MT1

## Cc1sc2c(c1C)C(c1ccc(Cl)cc1)=N[C@@H](CC(=O)OC(C)(C)C)c1nnc(C)n1-2 [JQ1, reference compound]
[7]
  IC50: 69 nM

## COc1cc2c(cc1-c1c(C)noc1C)ncc1[nH]c(=O)n([C@H](C)c3ccccn3)c12 [I-BET151, reference compound]
BRD4(1) [5]
  biochemical activity (in words): comparable performance to JQ1
NMC797 and MV4; 11 cells; 11, compared with JQ1
  cellular activity (in words): comparable performance to JQ1

## COC(=O)C[C@@H]1N=C(c2ccc(Cl)cc2)c2c(sc(C(=O)NCCNC(=O)C[C@@H]3N=C(c4ccc(Cl)cc4)c4c(sc(C)c4C)-n4c(C)nnc43)c2C)-n2c(C)nnc21 [(6+6)-PEG1, Methyl 2-((S)-4-(4-chlorophenyl)-2-((2-(2-((S)-4-(4-chlorophenyl)-2,3,9-trimethyl-6H-thieno[3,2-f][1,2,4]triazolo[4,3-a][1,4]diazepin-6-yl)acetamido)ethyl)carbamoyl)-3,9-dimethyl-6H-thieno[3,2-f][1,2,4]triazolo[4,3-a][1,4]diazepin-6-yl)acetate]
BRD4(1) [5]
  biochemical activity (in words): did not show improved activity
BRD4(1) [5]; listed as (6+6) homodimer
  biochemical activity (in words): did not increase biochemical or cellular activity
NMC797 and MV4; 11 cells; 11, compared with JQ1
  cellular activity (in words): did not show improved activity
NMC797 and MV4; 11 cells; 11, compared with JQ1, listed as (6+6) homodimer
  cellular activity (in words): did not increase biochemical or cellular activity
